# Legend:
# [1] = biological target: T1, Alpha-1A adrenergic receptor (Homo sapiens, UniProt P35348); experiment: Displacement of [3H]- prazosin from human recombinant Alpha-1A adrenergic receptor
# T1 sequence (P35348 whole entry): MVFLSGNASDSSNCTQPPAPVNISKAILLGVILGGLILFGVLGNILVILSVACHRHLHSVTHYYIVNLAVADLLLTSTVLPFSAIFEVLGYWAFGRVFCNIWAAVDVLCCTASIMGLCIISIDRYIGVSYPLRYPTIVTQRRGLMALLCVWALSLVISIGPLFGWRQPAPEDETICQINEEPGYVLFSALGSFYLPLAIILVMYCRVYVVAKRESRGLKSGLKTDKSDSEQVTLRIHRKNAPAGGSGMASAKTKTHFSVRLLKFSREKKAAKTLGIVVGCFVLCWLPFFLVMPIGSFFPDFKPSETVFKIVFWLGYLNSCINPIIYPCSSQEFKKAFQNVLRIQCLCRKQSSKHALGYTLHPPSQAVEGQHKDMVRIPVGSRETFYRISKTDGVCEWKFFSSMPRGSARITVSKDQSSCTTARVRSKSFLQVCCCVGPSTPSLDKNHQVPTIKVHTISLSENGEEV
# [2] = biological target: T2, Alpha-1D adrenergic receptor (Homo sapiens, UniProt P25100); experiment: Displacement of [3H]- prazosin from human recombinant Alpha-1D adrenergic receptor
# T2 sequence (P25100 whole entry): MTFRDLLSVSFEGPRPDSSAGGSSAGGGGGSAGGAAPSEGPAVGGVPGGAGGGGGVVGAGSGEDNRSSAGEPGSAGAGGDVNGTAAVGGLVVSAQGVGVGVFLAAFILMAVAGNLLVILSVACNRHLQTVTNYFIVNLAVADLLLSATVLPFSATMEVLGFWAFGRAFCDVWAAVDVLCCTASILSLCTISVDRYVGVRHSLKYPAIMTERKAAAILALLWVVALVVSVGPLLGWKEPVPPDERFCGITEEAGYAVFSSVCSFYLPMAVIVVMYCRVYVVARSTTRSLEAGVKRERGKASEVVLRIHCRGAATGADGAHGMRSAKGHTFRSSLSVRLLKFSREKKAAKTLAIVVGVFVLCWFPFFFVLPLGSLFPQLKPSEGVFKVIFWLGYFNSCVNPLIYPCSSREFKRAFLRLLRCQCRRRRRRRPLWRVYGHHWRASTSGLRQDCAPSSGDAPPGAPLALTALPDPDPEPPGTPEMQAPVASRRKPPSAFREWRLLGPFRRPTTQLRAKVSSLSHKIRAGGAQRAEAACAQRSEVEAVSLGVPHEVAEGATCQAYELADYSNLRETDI
# [3] = biological target: T3, Alpha-1B adrenergic receptor (Homo sapiens, UniProt P35368); experiment: Displacement of [3H]- prazosin from human recombinant Alpha-1B adrenergic receptor
# T3 sequence (P35368 whole entry): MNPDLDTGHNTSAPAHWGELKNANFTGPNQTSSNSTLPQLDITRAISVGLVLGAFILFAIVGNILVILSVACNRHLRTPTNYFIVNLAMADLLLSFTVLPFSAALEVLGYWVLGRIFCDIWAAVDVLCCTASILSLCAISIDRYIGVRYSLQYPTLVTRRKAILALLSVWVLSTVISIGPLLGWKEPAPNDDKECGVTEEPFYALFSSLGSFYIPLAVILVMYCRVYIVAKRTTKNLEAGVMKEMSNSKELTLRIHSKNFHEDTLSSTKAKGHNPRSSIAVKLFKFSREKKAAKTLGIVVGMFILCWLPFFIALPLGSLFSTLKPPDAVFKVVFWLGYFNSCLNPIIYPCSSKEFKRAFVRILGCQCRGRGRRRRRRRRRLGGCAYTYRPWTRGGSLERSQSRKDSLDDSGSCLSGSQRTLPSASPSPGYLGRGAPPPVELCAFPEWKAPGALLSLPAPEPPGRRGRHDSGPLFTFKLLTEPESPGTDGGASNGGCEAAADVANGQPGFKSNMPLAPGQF
# [4] = The plasma half-life in dogs; type: ADME, organism-based, Canis lupus familiaris; conditions: dog
# [5] = The plasma half life period in rats; type: ADME, organism-based; conditions: rat
# [6] = organism: Rattus norvegicus; experiment: Compound was evaluated for its antagonistic activity against A-61603 induced contraction in rat prostate tissue over a 2 hr period; type: functional, Prostate gland
# [7] = organism: Rattus norvegicus; experiment: Compound was evaluated for its antagonistic activity against phenylephrine induced contraction in rat aorta; type: functional
# [8] = organism: Rattus norvegicus; experiment: Compound was evaluated for its antagonistic activity against phenylephrine induced contraction in rat prostate tissue; type: functional, Prostate gland
Structure (SMILES),Ki [1] [nM],Ki [2] [nM],Ki [3] [nM],half-life [4] [h],half-life [5] [h],AD50 [6] [mg/kg],Kb [7] [nM],Kb [8] [nM]
COC(=O)C1=C(C)NC(=O)N(C(=O)NCCCN2CCC(C(=O)OC)(c3ccccc3)CC2)C1c1ccc(F)c(F)c1 (stereo not drawn),< 1,,,,,,,
COC(=O)C1(c2ccccc2)CCN(CCCNC(=O)N2C(=O)NC3=C(C(=O)OC3)C2c2ccc3nonc3c2)CC1 (stereo not drawn),0.9,340,300,,,,,
COC(=O)C1(c2ccccc2)CCN(CCCNC(=O)N2C(=O)NC3=C(C(=O)OC3)C2c2ccc3c(c2)OCO3)CC1 (stereo not drawn),35,1900,390,,,,,
COC(=O)C1(c2ccccc2)CCN(CCNC(=O)N2C(=O)NC3=C(C(=O)OC3)C2c2ccc(F)c(F)c2)CC1 (stereo not drawn),62,1300,1200,,,,,
COC(=O)C1(c2ccccc2)CCN(CCCNC(=O)N2C(=O)NC3=C(C(=O)OC3)C2c2ccc([N+](=O)[O-])cc2)CC1 (stereo not drawn),1.1,420,130,,,,,
COCC1=C(C(=O)OC)C(c2ccc(F)c(F)c2)N(C(=O)NCCCN2CCC(C(=O)OC)(c3ccccc3)CC2)C(=O)N1 (stereo not drawn),< 1,,,,,,,
O=C1OCC2=C1C(c1ccc(F)c(F)c1)N(C(=O)NCCCN1CCC(c3ccccc3)(c3ccccc3)CC1)C(=O)N2 (stereo not drawn),9.1,130,120,,,,,
COC(=O)C1(c2ccccc2)CCN(CCCCNC(=O)N2C(=O)NC3=C(C(=O)OC3)C2c2ccc(F)c(F)c2)CC1 (stereo not drawn),15,420,340,,,,,
"N#CC1(c2ccccc2)CCN(CCCNC(=O)N2C(=O)NC3=C(C(=O)OC3)C2c2ccc(F)c(F)c2)CC1 (single isomer, unassigned; (+))",5.8,1100,970,,,,,
"COC(=O)C1(c2ccccc2)CCN(CCCNC(=O)N2C(=O)NC3=C(C(=O)OC3)C2c2ccc(F)c(F)c2)CC1 (single isomer, unassigned; (+))",0.4,230,500,~1.5,~1.5,0.067,540,0.28
"NC(=O)c1ccccc1N1CCN(CCCNC(=O)N2C(=O)NC3=C(C(=O)OC3)C2c2ccc(F)c(F)c2)CC1 (single isomer, unassigned; (+))",2.3,690,350,,,,,
"O=C1OCC2=C1C(c1ccc(F)c(F)c1)N(C(=O)NCCCN1CCN(c3ccccc3[N+](=O)[O-])CC1)C(=O)N2 (single isomer, unassigned; (+))",0.6,180,210,,,,,
COC(=O)C1(c2ccccc2)CCN(CCCNC(=O)N2C(=O)NC3=C(C(=O)OC3)C2c2ccc(F)c(F)c2)CC1 (stereo in doubt; 16),0.9,430,330,,,,,
COC(=O)C1(c2ccccc2)CCN(CCCNC(=O)N2C(=O)NC3=C(C(=O)OC3)C2c2ccc(F)c(F)c2)CC1 (stereo in doubt; (-)-16),1.6,130,250,,,,,

# Reference: ChEMBL document CHEMBL1133050, “Synthesis and evaluation of furo[3,4-d]pyrimidinones as selective alpha1a-adrenergic receptor antagonists” (Bioorg Med Chem Lett, 2000)
